Reference: PMC10548421, “Anticancer Potential of Diruthenium Complexes with Bridging Hydrocarbyl Ligands from Bioactive Alkynols” (Inorganic Chemistry, 2023)

Legend:
[1] = test system: HeLa human cervical carcinoma cell line; test: MTT in vitro cytotoxicity, HeLa; type: cell-based; details: incubation 24 h, mean ± SD
Method: (§1) The cytotoxicity assessment was conducted on various human cancer cell lines, including A2780 ovarian carcinoma, A2780R cisplatin-resistant ovarian carcinoma, MCF-7 breast, HOS osteosarcoma, A549 epithelial lung, PANC-1 pancreatic, Caco-2 colorectal, PC-3 prostate adenocarcinoma, and HeLa cervical cell lines. Additionally, the assessment extended to a normal human fetal fibroblast cell line (MRC-5). Cells were obtained from ATCC collection and cultivated according to the producer’s instructions. Stock solutions of the compounds were prepared in DMF immediately before application, and diluted with H2O to achieve the final concentration of 0.1% v/v DMF.[99] The culture media were enriched with 10% fetal calf serum. Subsequently, the cells were exposed to the tested compounds, vehicle (0.1% v/v DMF) and Triton X-100 (1% v/v), during incubation. The conventional MTT assay was carried out following different incubation periods (Tables 5-6). The absorbance was measured at 570 nm by using a spectrophotometer (Infinite M200, Schoeller Instruments, Prague, Czech Republic). The obtained data are presented as the percentage of cell viability with 100% representing negative control treatment (0.1% v/v DMF) and 0% representing the positive control (Triton X-100). The half-maximal inhibitory concentrations (IC50) were determined from dose–response curves using GraphPad Prism 6 software (GraphPad Software, San Diego, USA).

[2] = test system: MCF-7 breast adenocarcinoma cell line; test: MTT in vitro cytotoxicity, MCF-7; type: cell-based, human; details: incubation 24 h, mean ± SD
Method: as §1

A2780 cells [3] = test: Mitochondrial membrane potential analysis (MITO-ID); type: cell-based, human; details: A2780, complexes 4 μM, cisplatin 15 μM, 24 h
Method: (§2) The A2780 ovarian carcinoma cell line was received from Merck (reference 93112519–1VL) and cultured at 37 °C in an environment with 5% CO2. The cultivation was carried out in complete cell culture medium (RPMI-1640 medium, Merck), which was supplemented with 10% fetal bovine serum (FBS, Merck), 1% L-glutamine (Merck) and 1% penicillin–streptomycin–neomycin (PSN, Merck). For the flow cytometry experiments, three independent duplicates were analyzed using a BD FACSVerse flow cytometer (Becton Dickinson, USA). At least 5 × 10^3 events were recorded for each sample. The same procedure was replicated for the experiments described below. Solutions of the complexes were formulated using the stock solutions (Section 5.1).
To investigate the effects on mitochondrial membrane potential of A2780 cells, an MITO-ID Membrane potential detection kit (Enzo Life Sciences, USA) was used. Cells were seeded in a 24-well (5 × 10^4 cells/well), and then incubated with 4 μM solution of complexes for 24 h. The supernatant was collected, cells were washed with warm PBS, detached using 0.25% trypsin-EDTA (Gibco) and resuspended in a cell culture medium. Then, samples were stained with diluted MITO-ID MP Detection Reagent (according to the protocol) at RT for 15 min, prior to flow cytometry analysis. A positive control was established by treating the samples with 2 μM carbonyl cyanide 3-chlorophenylhydrazone.

A2780 cells [4] = test: ROS production assessment (ROS-ID); type: cell-based, human; details: A2780, 4 μM, 24 h
Method: as §2
ROS-ID Total ROS/Superoxide detection kit (from Enzo Life Sciences, US) was employed to quantify ROS and superoxide generation in A2780 cells following the treatment with the tested compounds. Thus, cells were seeded in a 96-well plate (10^4 cells/well) and incubated with 4 μM solution of complexes for 24 h. A 100 μM solution of pyocyanin, which is a known oxidative-stress inducer, was used as a positive control. […] Finally, a microplate reader Infinite M200Pro (Tecan, Switzerland) was used to measure sample fluorescence (green: Ex. 488 nm/Em. 520 nm, and red: Ex. 550 nm/Em. 610 nm) and three independent experiments were done in triplicates.

A2780 cells [5] = test: Cell cycle analysis (flow cytometry, PI); type: cell-based, human; details: A2780, 4 μM, 24 h
Method: as §2
These studies were conducted on A2780 cells using the BD Cycletest Plus DNA kit (from Becton Dickinson, USA). Thus, cells were seeded in 96-well plates (10^4 cells/well) and treated with 4 μM complexes 3a and 3b for 24 h. Following the incubation period, cells underwent a series of procedural steps. Initially, they were rinsed using PBS (0.1 M, pH 7.4). […]

[6] = test system: A549 human lung adenocarcinoma cell line; test: MTT in vitro cytotoxicity, A549; type: cell-based; details: incubation 24 h, mean ± SD
Method: as §1

[7] = test system: Caco-2 human colorectal adenocarcinoma cell line; test: MTT in vitro cytotoxicity, Caco-2; type: cell-based; details: incubation 24 h, mean ± SD
Method: as §1, with “Additionally,” for “The cytotoxicity assessment was conducted on various human cancer cell lines, including A2780 ovarian carcinoma, A2780R cisplatin-resistant ovarian carcinoma, MCF-7 breast, HOS osteosarcoma, A549 epithelial lung, PANC-1 pancreatic, Caco-2 colorectal, PC-3 prostate adenocarcinoma, and HeLa cervical cell lines. Additionally,”

[8] = Stability in DMEM/CH3OH solution (UV–vis); type: physicochemical; details: ca. 5:1 v/v
Method: […] The percentage of remaining complex in the solution was calculated by considering the change in absorbance at the characteristic wavelength. The identical procedure was employed to evaluate stability in MeOH and DMEM (about 1:5 v/v) solutions. DMEM stands for the cell culture medium (containing 1000 mg/L glucose and L-glutamine, excluding sodium bicarbonate and phenol red; reference D2902-Merck).

[9] = test system: A2780R cisplatin-resistant human ovarian carcinoma cell line; test: MTT in vitro cytotoxicity, A2780R; type: cell-based; details: incubation 24 h, mean ± SD
Method: as §1

SMILES | IC50 [1] | IC50 [2] | cell count with damaged mitochondrial membranes (in words) (A2780 cells [3]) | intracellular ROS levels (in words) (A2780 cells [4]) | effect on the cell cycle (in words) (A2780 cells [5]) | IC50 [6] | IC50 [7] | residual complex % in DMEM/CH3OH ([8]; 2 h) | residual complex % in DMEM/CH3OH ([8]; 18 h) | IC50 [9]
CC12CCC3c4ccc(O)cc4CCC3C1CCC2=C=[CH][Ru]1(=[C]=O)([CH]2C=CC=C2)[C](=O)[Ru+]1(=[C]=O)[CH]1C=CC=C1.F[B-](F)(F)F (mixture of isomers) [3b, [Ru2Cp2(CO)3{μ–η^1:η^2-CH=C=(estradiolylidene)}]BF4] | 12.5 ± 1.1 µM | 11.6 ± 1.5 µM | notable augmentation | no appreciable effect | strong depression of the cell number in the synthetic (S) phase and second gap and mitotic phases (G2/M) | 16.1 ± 1.3 µM | 36 ± 2.7 µM | 88% | 42% | 4.6 ± 1.3 µM
F[B-](F)(F)F.O=[C]=[Ru+]1([CH]2C=CC=C2)[C](=O)[Ru]1(=[C]=O)([CH]=C=C1CCCC1)[CH]1C=CC=C1 (centres unmarked) [3a, [Ru2Cp2(CO)3{μ–η^1:η^2-CH=C=(cyclopentylidene)}]BF4] | 17.5 ± 2.9 µM | 16.2 ± 1.7 µM | notable augmentation | noteworthy elevation of intracellular ROS levels | strong depression of the cell number in the synthetic (S) phase and second gap and mitotic phases (G2/M) | 25.3 ± 1.9 µM | > 50 µM | 94% | 12% | 6.4 ± 1.9 µM
